Test results reported in patent US8757784B2, “Ink for ink jet recording and recording method” (Seiko Epson Corporation, priority 2012, dated 2014).

Experiment: physchem
Settings: not given
Description: Herein, the “logP value” is an index that represents hydrophobicity of a compound. The logP value represents, in an octanol/water system, in which ratio a solute is distributed in these two layers. In other words, when the logP value of the solute is bigger, the hydrophobicity is higher and the solute is well dissolved in an octanol phase.
For example, the logP value can be determined using a flask shaking method using the solute and two types of solvents being actually placed in a flask and mixed by shaking the flask well, or a HPLC method using a high performance liquid chromatography (HPLC).

SMILES	logP	logP value
CC(C)C(O)C(C)(C)CO (stereo not shown) [2,2,4-trimethyl-1,3-pentanediol]	2	
CC(O)C(C)O (stereo not shown) [2,3-butanediol]	-0.36	
OCCCCO [1,4-butanediol]	0.5	0.50

Same assay, conditions: octanol/water system

SMILES	logP value
OCCCO [1,3-propanediol]	−1.33
CCC(CO)(CO)CO [trimethylol propane]	−0.47
OCC(O)CO [glycerin]	−2.70

Same assay, conditions: octanol/water, logP value, octanol/water system

SMILES	logP
CC(C)(O)CCO [3-methyl-1,3-butanediol]	-0.33
CC(CO)CO [2-methyl-1,3-propanediol]	-0.6
CC(O)CCC(C)O (stereo not shown) [2,5-hexanediol]	0.62
CC(C)(O)CO [2-methyl-1,2-propanediol]	0.026
CCC(O)CCO (stereo not shown) [1,3-pentanediol]	-0.16
CC(O)CO (stereo not shown) [propylene glycol]	-0.92
CC(O)CC(C)(C)O (stereo not shown) [2-methyl-2,4-pentanediol]	0.88
CC(C)(CO)CO [2,2-dimethyl-1,3-propanediol]	-0.3
CC(CCO)CCO [3-methyl-1,5-pentanediol]	-0.2
CCCCC(O)CO (stereo not shown) [1,2-hexanediol]	0.5
CCCC(O)CO (stereo not shown) [1,2-pentanediol]	0.01
CCCC(=O)OCC(O)CO (stereo not shown) [1-butanoyl glycerol]	0
CCC(O)CO (stereo not shown) [1,2-butanediol]	-0.32
CC(C)(O)CCC(C)(C)O [2,5-dimethyl-2,5-hexanediol]	1.53
CCCCC(CC)(CO)CO [2-butyl-2-ethyl-1,3-propanediol]	2.1
